As a reminder, the Kd is the concentration at which binding is half-saturated.

Data on seven molecules can be found in PMC13395458, “Structural dynamics of IRE1 and its interaction with unfolded peptides” (eLife, 2026).

One test concerns the target T1, hIRE1α LD E102R (Homo sapiens, UniProt O75460, E102R).
T1 construct: His6 (N, cleaved yes); made in house; host or cells: Escherichia coli BL21DE3* RIPL
T1 sequence (O75460 24-443 E102R): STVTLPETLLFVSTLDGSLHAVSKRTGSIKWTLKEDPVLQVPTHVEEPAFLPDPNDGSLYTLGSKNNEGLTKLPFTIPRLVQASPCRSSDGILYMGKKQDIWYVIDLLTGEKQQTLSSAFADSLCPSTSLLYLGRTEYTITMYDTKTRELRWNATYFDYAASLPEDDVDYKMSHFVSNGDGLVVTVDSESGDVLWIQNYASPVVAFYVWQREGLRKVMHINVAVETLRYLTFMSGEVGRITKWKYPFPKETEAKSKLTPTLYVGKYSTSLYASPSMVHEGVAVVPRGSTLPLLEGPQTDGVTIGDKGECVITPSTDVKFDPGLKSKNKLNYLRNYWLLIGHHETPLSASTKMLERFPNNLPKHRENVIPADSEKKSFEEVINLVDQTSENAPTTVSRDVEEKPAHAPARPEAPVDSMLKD
Briefly: Fluorescence anisotropy, binding of labeled MPZ1N-2X to hIRE1α LD E102R. As for the experimental part:
(§1) To express hIRE1α LD (24–443) human cDNA sequences were cloned into pET47b(+) to create a coding sequence with N-terminal His6-tag. Mutations of hIRE1α LD were introduced by overlap extension PCR and restriction cloning into pET47b(+). For expression of the proteins, the plasmid of interest was transformed into Escherichia coli strain BL21DE3* RIPL (Agilent Technologies). Cells were grown in Luria Broth until OD600 = 0.6–0.8. Protein expression was induced with 0.6 mM IPTG, and cells were grown in 20°C overnight. For purification, cells after harvesting were resuspended in Lysis Buffer (50 mM HEPES pH 7.2, 400 mM NaCl, 20 mM imidazole, 5% glycerol, 5 mM β -mercaptoethanol) and were lysed in Constans Systems cell disruptor at 25,000 psi. […] Protein concentrations were determined using the extinction coefficient at 280 nm predicted by the Expasy ProtParam tool (http://web.expasy.org/protparam/).
(§2) For fluorescence anisotropy measurements, the MPZ1-N-2X peptide attached to 5 carboxyfluorescein (5-FAM) at its N-terminus was obtained from GenScript at >95% purity. Binding affinities of hIRE1α LD mutants to FAM-labeled peptides were determined by measuring the change in fluorescence anisotropy on a Tecan CM Spark Micro Plate Reader with excitation at 485 nm and emission at 525 nm with increasing concentrations of hIRE1α LD variants. […]

The target in another test is T2, hIRE1α LD wild-type (Homo sapiens, UniProt O75460).
T2 construct: His6 (N, cleaved yes); made in house; host or cells: Escherichia coli BL21DE3* RIPL
T2 sequence (O75460 24-443): T1 sequence (O75460 24-443 E102R) with R79E
In words: Fluorescence anisotropy, binding of labeled MPZ1N-2X to hIRE1α LD WT. As for the experimental part:
as §1, §2
In general terms: In fluorescence polarisation assays a small probe gives low polarisation when free and higher when bound to something large.

Another test addresses T3, hIRE1α LD Y161R (Homo sapiens, UniProt O75460, Y161R).
T3 construct: His6 (N, cleaved yes); made in house; host or cells: Escherichia coli BL21DE3* RIPL
T3 sequence (O75460 24-443 Y161R): T1 sequence (O75460 24-443 E102R) with R79E, Y138R
Briefly: Fluorescence anisotropy, binding of labeled MPZ1N-2X to hIRE1α LD Y161R. The following applies: 95% confidence interval of KD. As for the experimental part: as §1, §2

For a further test, the system named is hIRE1α. The conditions noted are these: available binding affinities to hIRE1α; fluorescence anisotropy; ref Karagöz et al., 2017; Kettel et al., 2024; cited from earlier work. An excerpt: page 1: Structural Dynamics of IRE1 and its Interaction with Unfolded Peptides Supplementary File 2 Polypeptide K1/2 [µM] […] References Elif Karag¨oz G, Acosta-Alvear D, Nguyen HT, Lee CP, Chu F, Walter P. An unfolded protein-induced conformational switch activates mammalian IRE1. eLife. 2017;6:e30700. Kettel P, Marosits L, Spinetti E, Rechberger M, Giannini C, Radler P, et al. Disordered regions in the IRE1 ER lumenal domain medi ...

Test [1] deals with T4, MPZ1N-2X peptide, 5-FAM labelled (5 carboxyfluorescein (5-FAM) at its N-terminus).
T4 construct: model unfolded peptide derived from Myelin Protein Zero (MPZ); not a plain stretch of the natural protein; source: synthetic peptide; bought: GenScript (>95% purity)
T4 peptide: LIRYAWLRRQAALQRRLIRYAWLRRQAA
In words: fluorescence polarisation; fluorescence anisotropy; 90 nM 5-FAM-labelled peptide with increasing concentrations of hIRE1α LD variants; 25 mM HEPES pH 7.2, 150 mM NaCl, 2 mM DTT, 0.025% Tween 20; 30 min at 25°C; Hill fit, apparent K1/2 (does not reflect the dissociation constant). The following applies: both partners purified.

[2] abbreviates: 95% confidence interval of KD, read-out: KD 95% confidence interval.

Positions count from the first letter of the chain named. In names and notes the source's numbering stands. Read-outs that look alike come from different tables or passages of the source. Ends that are not written are not given here.

For the molecule LIRYAWLRRQAALQRRLIRYAWLRRQAA [MPZ1N-2X], the Kd is 5.84 to 6.96 µM on hIRE1α LD E102R (setting [2]); 6.35 µM at hIRE1α LD E102R (fluorescence anisotropy, 5-FAM-labeled peptide 90 nM, pH 7.2, 30 min, 25°C, R2 0.9992, read-out: KD); 1.81 to 2.53 µM on hIRE1α LD wild-type (setting [2]); 2.14 µM on hIRE1α LD wild-type (fluorescence anisotropy, 5-FAM-labeled peptide 90 nM, pH 7.2, 30 min, 25°C, R2 0.9918, read-out: KD); 4.3 to 7.1 µM on hIRE1α LD Y161R. Turning to “LQRRISAME [MPZ1-C, peptide derived from Myelin Protein Zero, …]”, in the test with hIRE1α, the K1/2 was 572 µM.

As for “LIDYAWLDDQAALQDDLIDYAWLDDQAA [MPZ1N-2X-RD, MPZ1N-2X with all the arginines mutated to aspartic acid]”, the K1/2 entry with hIRE1α is on record as “binding impaired”. Turning to “LIRYAWLRRQAA [MPZ1-N, unfolded peptide derived from Myelin Protein Zero, …]”, the K1/2 with hIRE1α is on record as 16 µM.

B1: human IRE1α luminal domain (hIRE1α LD, 24–443), wild type (domain or fragment, UniProt O75460 24-443, looked up)
chain: T1 sequence (O75460 24-443 E102R) with R79E
notes: Inositol-requiring enzyme 1 alpha (IRE1α), human, luminal domain, residues 24-443, cloned from human cDNA into pET47b(+); also called hIRE1α LD WT; WT; source: E. coli BL21DE3* RIPL, purified (Ni-NTA, HiTRAP-Q, Superdex 200); not shown: His6, N-terminal, cleaved
Take B1: the “K1/2 (apparent)” value in test [1] worked out at 2.14 µM.

B2: human IRE1α luminal domain (hIRE1α LD, 24–443) E102R (domain or fragment, UniProt O75460 24-443, looked up)
chain: T1 sequence (O75460 24-443 E102R)
notes: Inositol-requiring enzyme 1 alpha (IRE1α), human, luminal domain, residues 24-443, with E102R introduced by overlap extension PCR; source: E. coli BL21DE3* RIPL, purified (Ni-NTA, HiTRAP-Q, Superdex 200); not shown: His6, N-terminal, cleaved
Regarding B2, the “K1/2 (apparent)” value in test [1] was found to be 6.35 µM.

B3: human IRE1α luminal domain (hIRE1α LD, 24–443) Y161R (domain or fragment, UniProt O75460 24-443, looked up)
chain: T1 sequence (O75460 24-443 E102R) with R79E, Y138R
notes: Inositol-requiring enzyme 1 alpha (IRE1α), human, luminal domain, residues 24-443, with Y161R introduced by overlap extension PCR; source: E. coli BL21DE3* RIPL, purified (Ni-NTA, HiTRAP-Q, Superdex 200); not shown: His6, N-terminal, cleaved
For B3, the “K1/2 (apparent)” value in test [1] turned out to be 5.4 µM.
